Where two headings read alike, the source gives them in different places.
Legend:
Set-up in all cases: species or system AML cell lines (8); Primary HTS, single concentration about 10 uM, Cell Titer Glo viability; log10 luminescence, per cent inhibition relative to cycloheximide control
Settings in all cases: 72 h, relative to cycloheximide control, log10 luminescence, inhibitor
[1] = tested on: CMK
[2] = tested on: MV4-11
[3] = tested on: CMS
[4] = tested on: U937
[5] = tested on: M07e
[6] = tested on: CHRF288-11
[7] = tested on: MOLM-13
[8] = tested on: ML-2

Work on `CCOC(=O)[C@H](CCc1ccccc1)N[C@@H](C)C(=O)N1[C@H](C(=O)O)C[C@H]2CCCC[C@@H]21` [SJ000286095-3, TRANDOLAPRIL] yielded a CMK %inh [1] of -2.955%, an MV4-11 %inh [2] of 3.149% and a CMS %inh [3] of -0.04443%. The U937 %inh [4] was 1.075%, the M07e %inh [5] was 4.953% and the CHRF288-11 %inh [6] was 2.18%. It also gave an MOLM-13 %inh [7] of 4.361% and an ML-2 %inh [8] of -0.1668%.
`CN1CCN(C2=Nc3ccccc3Oc3ccc(Cl)cc32)CC1` [SJ000286106-7, LOXAPINE SUCCINATE] showed a CMK %inh [1] of -0.3035%, an MV4-11 %inh [2] of 2.165% and a CMS %inh [3] of 1.134%. The U937 %inh [4] was 3.14%, the M07e %inh [5] was 4.618% and the CHRF288-11 %inh [6] was 14.63%. For the same compound, the MOLM-13 %inh [7] was 7.459% and the ML-2 %inh [8] was 1.422%.
Work on `NS(=O)(=O)c1cc2c(cc1Cl)NC(C(Cl)Cl)NS2(=O)=O` (stereo not shown) [SJ000286143-4, TRICHLORMETHIAZIDE] yielded a CMK %inh [1] of 3.577%, an MV4-11 %inh [2] of -3.026% and a CMS %inh [3] of 0.3933%. It also gave a U937 %inh [4] of -14.58%, an M07e %inh [5] of -1.321% and a CHRF288-11 %inh [6] of 5.642%. It also gave an MOLM-13 %inh [7] of -1.049% and an ML-2 %inh [8] of -0.7669%.
Compound `CCCc1cc(=O)[nH]c(=S)[nH]1` [SJ000286145-4, PROPYLTHIOURACIL] has a CMK %inh [1] of -4.099%, an MV4-11 %inh [2] of 0.3408% and a CMS %inh [3] of -1.815%. It also gave a U937 %inh [4] of -0.4734%, an M07e %inh [5] of 2.631% and a CHRF288-11 %inh [6] of 1.792%. It also gave an MOLM-13 %inh [7] of -0.9508% and an ML-2 %inh [8] of 1.023%.
For `C[C@]12CCC(=O)C=C1CC[C@@H]1[C@@H]2[C@@H](O)C[C@@]2(C)[C@H]1CC[C@]2(O)C(=O)COP(=O)(O)O` [SJ000286156-3, HYDROCORTISONE SODIUM PHOSPHATE], the CMK %inh [1] was 0.9258%, the MV4-11 %inh [2] was -4.752% and the CMS %inh [3] was -1.283%. It also gave a U937 %inh [4] of 5.176%, an M07e %inh [5] of 0.6039% and a CHRF288-11 %inh [6] of 4.933%. The MOLM-13 %inh [7] was 15.41% and the ML-2 %inh [8] was 0.191%.
In the case of `CCCCCCCCCCCCCCCCOP(=O)([O-])OCC[N+](C)(C)C` [SJ000286181-3, MILTEFOSINE], the CMK %inh [1] is reported as -1.001%, the MV4-11 %inh [2] is reported as -0.6681% and the CMS %inh [3] is reported as -1.205%. The U937 %inh [4] was -1.059%, the M07e %inh [5] was 2.383% and the CHRF288-11 %inh [6] was 1.656%. The MOLM-13 %inh [7] was 1.005% and the ML-2 %inh [8] was -0.1071%.
Work on `CN(C)C(=O)Oc1ccc[n+](C)c1` [SJ000286222-6, PYRIDOSTIGMINE BROMIDE] yielded a CMK %inh [1] of -7.252%, an MV4-11 %inh [2] of -1.282% and a CMS %inh [3] of -3.618%. The U937 %inh [4] was 1.718%, the M07e %inh [5] was 2.078% and the CHRF288-11 %inh [6] was -1.775%. The MOLM-13 %inh [7] was -2.128% and the ML-2 %inh [8] was 1.797%.
`CC(=O)O[C@]1(C(C)=O)CC[C@H]2[C@@H]3C=C(Cl)C4=CC(=O)[C@@H]5C[C@@H]5[C@]4(C)[C@H]3CC[C@@]21C` [SJ000286483-6, CYPROTERONE ACETATE] showed a CMK %inh [1] of -1.818%, an MV4-11 %inh [2] of 2.562% and a CMS %inh [3] of 2.38%. It also gave a U937 %inh [4] of 1.732%, an M07e %inh [5] of 0.443% and a CHRF288-11 %inh [6] of -0.8844%. For the same compound, the MOLM-13 %inh [7] was -1.163% and the ML-2 %inh [8] was -2.366%.
With `CCCCC1=NC2(CCCC2)C(=O)N1Cc1ccc(-c2ccccc2-c2nnn[nH]2)cc1` [SJ000286674-2, IRBESARTAN] the CMK %inh [1] was 0.3545%, the MV4-11 %inh [2] was 1.017% and the CMS %inh [3] was -2.028%. It also gave a U937 %inh [4] of -0.5514%, an M07e %inh [5] of 0.4149% and a CHRF288-11 %inh [6] of 1.638%. It also gave an MOLM-13 %inh [7] of 17.32% and an ML-2 %inh [8] of 1.25%.
`CC(C)=CCC/C(C)=C/CC/C(C)=C/CO` [SJ000286702-2, FARNESOL] was tested, and the CMK %inh [1] was -1.858%, the MV4-11 %inh [2] was -0.08153% and the CMS %inh [3] was -1.627%. The U937 %inh [4] was -0.4236%, the M07e %inh [5] was 1.694% and the CHRF288-11 %inh [6] was -1.355%. It also gave an MOLM-13 %inh [7] of -0.6204% and an ML-2 %inh [8] of 1.139%.
`C[C@H](CS)C(=O)N1CCC[C@H]1C(=O)O` [SJ000286908-7, CAPTOPRIL] gave a CMK %inh ([1]; CMK %inh, 10 µM) of -2.127%, an MV4-11 %inh ([2]; MV4-11 %inh, 10 µM) of 2.877% and a CMS %inh ([3]; CMS %inh, 10 µM) of 0.1894%. For the same compound, the U937 %inh ([4]; U937 %inh, 10 µM) was 2.172%, the M07e %inh ([5]; M07e %inh, 10 µM) was 3.365% and the CHRF288-11 %inh ([6]; CHRF288-11 %inh, 10 µM) was 0.04975%. It also gave an MOLM-13 %inh ([7]; MOLM-13 %inh, 10 µM) of 2.932% and an ML-2 %inh ([8]; ML-2 %inh, 10 µM) of -0.2844%.

— paper PMC6522510 (Nature Communications, 2019)
